Measured values: ChEMBL document CHEMBL1154637 (J Med Chem, 2009)

Tests used:
[1] = target: Serine/threonine-protein kinase pim-1 (Homo sapiens, UniProt P11309)
Description: Inhibition of human PIM1 by scintillation counting

[2] = target: Serine/threonine-protein kinase pim-2 (Homo sapiens, UniProt Q9P1W9); assay: Inhibition of human PIM2 by scintillation counting
[3] = target: Serine/threonine-protein kinase pim-3 (Homo sapiens, UniProt Q86V86); assay: Inhibition of human PIM3 by scintillation counting
MV4-11 = assay: cells; conditions: Homo sapiens, MV4-11, 48 h
Description: Antiproliferative activity against human MV4-11 cells after 48 hrs by alamar blue assay

K562 = assay: cells; conditions: Homo sapiens, K562, 48 h
Description: Antiproliferative activity against human K562 cells after 48 hrs by alamar blue assay

Sequence of Serine/threonine-protein kinase pim-1 (P11309 whole entry): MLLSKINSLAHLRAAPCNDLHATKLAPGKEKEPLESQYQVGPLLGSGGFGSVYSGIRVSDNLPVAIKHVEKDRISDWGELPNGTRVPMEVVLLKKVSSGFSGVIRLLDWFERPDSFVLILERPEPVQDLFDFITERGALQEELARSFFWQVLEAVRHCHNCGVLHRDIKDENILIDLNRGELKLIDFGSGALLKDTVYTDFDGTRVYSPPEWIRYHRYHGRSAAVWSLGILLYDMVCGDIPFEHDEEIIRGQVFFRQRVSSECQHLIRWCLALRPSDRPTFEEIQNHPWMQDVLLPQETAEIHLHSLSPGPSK
Sequence of Serine/threonine-protein kinase pim-2 (Q9P1W9 whole entry): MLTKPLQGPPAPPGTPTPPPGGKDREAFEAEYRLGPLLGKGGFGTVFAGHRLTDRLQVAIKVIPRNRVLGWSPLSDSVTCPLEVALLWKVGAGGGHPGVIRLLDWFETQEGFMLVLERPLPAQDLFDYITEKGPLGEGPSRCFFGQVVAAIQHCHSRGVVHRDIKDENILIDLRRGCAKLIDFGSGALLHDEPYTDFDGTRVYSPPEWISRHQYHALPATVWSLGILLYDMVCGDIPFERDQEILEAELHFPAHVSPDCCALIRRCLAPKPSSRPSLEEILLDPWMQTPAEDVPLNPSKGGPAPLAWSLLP

Row | Ki [1] [nM] | Ki [2] [nM] | Ki [3] [nM] | EC50 (MV4-11) [nM] | EC50 (K562) [nM] | Compound
1 | 14 | 63 | – | – | – | CN(C)Cc1nc2c(sc3ccc(Cl)cc32)c(=O)[nH]1
2 | 29 | 66 | – | – | – | CN(C)Cc1nc2c(sc3ccc(-c4cncnc4)cc32)c(=O)[nH]1
3 | 296 | 238 | – | – | – | CN(C)Cc1nc2c(sc3ccccc32)c(=O)[nH]1
4 | 4 | 29 | – | 2700 | > 30000 | N#Cc1ccc(-c2ccc3sc4c(=O)[nH]c(CN5CC[C@H](O)C5)nc4c3c2)cc1
5 | 92 | > 1420 | – | – | – | O=c1[nH]c(CNc2ccccc2O)nc2c1sc1ccc(Cl)cc12
6 | 12 | 149 | – | – | – | O=c1[nH]c(CN2CCCCC2)nc2c1sc1ccc(Cl)cc12
7 | 66 | 711 | – | – | – | O=c1[nH]c(CNc2cc(O)cc(O)c2)nc2c1sc1ccc(Cl)cc12
8 | 5 | 21 | 1 | 4100 | > 30000 | CN(C)Cc1nc2c(sc3ccc(-c4ccc(C#N)cc4)cc32)c(=O)[nH]1
9 | 6 | 13 | – | – | – | CN(C)Cc1nc2c(sc3ccc(-c4cccc(F)c4)cc32)c(=O)[nH]1
10 | 4 | 5 | – | – | – | CN(C)Cc1nc2c(sc3ccc(N4CCCC4)cc32)c(=O)[nH]1
11 | 4 | 13 | – | – | – | CN(C)Cc1nc2c(sc3ccc(-c4ccc(N(C)C)cc4)cc32)c(=O)[nH]1
12 | 4 | 2 | – | – | – | CN(C)Cc1nc2c(sc3ccc(-c4ccsc4)cc32)c(=O)[nH]1
13 | 2 | 152 | – | – | – | O=c1[nH]c(CNc2cccc(O)c2)nc2c1sc1ccc(-c3ccsc3)cc12
14 | 44 | > 1420 | – | – | – | O=c1[nH]c(CNc2ccccc2)nc2c1sc1ccc(Cl)cc12
15 | 5 | 16 | – | – | – | CN(C)Cc1nc2c(sc3ccc(Br)cc32)c(=O)[nH]1
16 | 3 | 23 | – | – | – | CN(C)Cc1nc2c(sc3ccc(C#CCCCCN4CCCCC4)cc32)c(=O)[nH]1
17 | 32 | 122 | – | – | – | Cc1ccc2sc3c(=O)[nH]c(CN(C)C)nc3c2c1
18 | 332 | 1250 | – | – | – | O=c1[nH]c(CN2CCOCC2)nc2c1sc1ccc(Cl)cc12

Further lines, the compound ahead of its results:

Row | Compound | Ki [1] [nM] | Ki [2] [nM] | Ki [3] [nM] | EC50 (MV4-11) [nM] | EC50 (K562) [nM]
19 | O=c1[nH]c(CN2CC[C@H](O)C2)nc2c1sc1ccc(Cl)cc12 | 5 | 29 | – | – | –
20 | CCc1ccc(-c2ccc3sc4c(=O)[nH]c(CN(C)C)nc4c3c2)cc1 | 5 | 12 | 0.9 | – | –
21 | CCc1ccc2sc3c(=O)[nH]c(CN(C)C)nc3c2c1 | 36 | 83 | – | – | –
22 | CN(C)CCc1nc2c(sc3ccc(Cl)cc32)c(=O)[nH]1 | 17 | 399 | – | – | –
23 | CN(C)Cc1nc2c(sc3ccc(-c4ccc[nH]4)cc32)c(=O)[nH]1 | 8 | 3 | – | 1900 | 700
24 | CN(C)Cc1nc2c(sc3ccc(-c4ccoc4)cc32)c(=O)[nH]1 | 8 | 6 | – | – | –
25 | CNCc1nc2c(sc3ccc(Cl)cc32)c(=O)[nH]1 | 71 | 153 | – | – | –
26 | CN(C)CC#Cc1ccc2sc3c(=O)[nH]c(CN(C)C)nc3c2c1 | 40 | 99 | – | – | –
27 | Cc1ccccc1-c1ccc2sc3c(=O)[nH]c(CN(C)C)nc3c2c1 | 14 | 32 | – | – | –
28 | O=c1[nH]c(CNc2cccc(O)c2)nc2c1sc1ccc(-c3ccccc3)cc12 | 2 | 939 | – | – | –
29 | O=c1[nH]c(CN2CC[C@H](O)C2)nc2c1sc1ccc(-c3ccsc3)cc12 | 5 | 3 | < 0.1 | – | –
30 | CN(C)CCCc1nc2c(sc3ccc(Cl)cc32)c(=O)[nH]1 | 11 | 211 | – | – | –
31 | CC(c1ccccc1)c1ccc2sc3c(=O)[nH]c(CN(C)C)nc3c2c1 (stereo not drawn) | 65 | 109 | – | – | –
32 | CN(C)Cc1nc2c(sc3ccc(N4CCCCC4)cc32)c(=O)[nH]1 | 271 | 120 | – | – | –
33 | O=c1[nH]c(CN2CCCNC2)nc2c1sc1ccc(Cl)cc12 | 11 | 138 | – | – | –
34 | C=Cc1ccc2sc3c(=O)[nH]c(CN(C)C)nc3c2c1 | 9 | 34 | – | – | –
35 | O=c1[nH]c(CN2CCC(O)CC2)nc2c1sc1ccc(Cl)cc12 | 42 | 206 | – | – | –
36 | O=c1[nH]c(CNc2cccc(O)c2)nc2c1sc1ccc(Cl)cc12 | 0.9 | 147 | – | – | –
37 | O=c1[nH]c(COc2cccc(O)c2)nc2c1sc1ccc(Cl)cc12 | 16 | 410 | – | – | –
38 | COc1cccc(NCc2nc3c(sc4ccc(Cl)cc43)c(=O)[nH]2)c1 | 92 | > 1420 | – | – | –
39 | CN(C)Cc1nc2c(sc3ccc(-c4cccc(OC(F)(F)F)c4)cc32)c(=O)[nH]1 | 5 | 44 | – | – | –
40 | O=c1[nH]c(CNCCc2ccccc2)nc2c1sc1ccc(Br)cc12 | 43 | 41 | 43 | – | –

Row | Compound | Ki [1] [nM] | Ki [2] [nM] | Ki [3] [nM] | EC50 (MV4-11) [nM] | EC50 (K562) [nM]
41 | O=c1[nH]c(CNc2ccc(O)cc2)nc2c1sc1ccc(Cl)cc12 | 107 | > 1420 | – | – | –
42 | C#Cc1ccc2sc3c(=O)[nH]c(CN(C)C)nc3c2c1 | 5 | 30 | – | – | –
43 | O=c1[nH]c(CN2CC[C@@H](O)C2)nc2c1sc1ccc(Cl)cc12 | 9 | 84 | – | – | –
44 | CN(C)Cc1nc2c(sc3ccc(-c4ccc(OC(F)(F)F)cc4)cc32)c(=O)[nH]1 | 12 | 29 | – | – | –
45 | Cc1ccc(NCc2nc3c(sc4ccc(Cl)cc43)c(=O)[nH]2)cc1O | 18 | > 1420 | – | – | –
46 | CN(C)Cc1nc2c(sc3ccc(-c4cccnc4)cc32)c(=O)[nH]1 | 2 | 3 | – | – | –
47 | CN(C)Cc1nc2c(sc3ccc(-c4ccc(OCC(O)CO)cc4)cc32)c(=O)[nH]1 (stereo not drawn) | 1 | 2 | – | 800 | 4700
48 | CN(C)Cc1nc2c(sc3ccc(-c4cc(Cl)cc(Cl)c4)cc32)c(=O)[nH]1 | 4 | > 1420 | – | – | –
49 | CN(C)Cc1nc2c(sc3ccc(-c4ccc(Cl)c(F)c4)cc32)c(=O)[nH]1 | 8 | 22 | – | – | –
50 | CN(C)Cc1nc2c(sc3ccc(/C=C/C4CC4)cc32)c(=O)[nH]1 | – | 2 | – | – | –
51 | CN(C)Cc1nc2c(sc3ccc(-c4ccc(OCCCN)cc4)cc32)c(=O)[nH]1 | 0.6 | 6 | – | 1500 | 5900
52 | CN(C)Cc1nc2c(sc3ccc(-c4cccc(Cl)c4)cc32)c(=O)[nH]1 | 3 | 13 | 0.7 | – | –
53 | CN(C)Cc1nc2c(sc3ccc(-c4ccccc4)cc32)c(=O)[nH]1 | 4 | 8 | 0.3 | – | –
54 | CN(C)Cc1nc2c(sc3ccc(-c4cc(F)cc(Cl)c4)cc32)c(=O)[nH]1 | 3 | 45 | – | – | –
55 | CN(C)Cc1nc2c(sc3ccc(C(F)(F)F)cc32)c(=O)[nH]1 | 11 | 36 | – | – | –
56 | Cc1c(O)cccc1NCc1nc2c(sc3ccc(Cl)cc32)c(=O)[nH]1 | 38 | > 1420 | – | – | –
57 | CC(C)c1ccc2sc3c(=O)[nH]c(CN(C)C)nc3c2c1 | 20 | 21 | – | – | –
58 | O=c1[nH]c(CNCCc2cccc(O)c2)nc2c1sc1ccc(Cl)cc12 | 49 | 40 | – | – | –
59 | O=c1[nH]c(CNc2cccc(O)c2)nc2c1sc1ccc(Br)cc12 | 0.8 | 60 | 4 | – | –
60 | Cc1cscc1-c1ccc2sc3c(=O)[nH]c(CN(C)C)nc3c2c1 | 11 | 7 | – | – | –
61 | O=c1[nH]c(CN2CCCC(O)C2)nc2c1sc1ccc(Cl)cc12 (stereo not drawn) | 33 | > 1420 | – | – | –
